Measured values reported in patent publication US20240325375A1, “Effect of YEL002 on Psychological and Psychiatric Factors in Health and Disease” (RadMit, Inc., priority 2023, published 2024).

System: lymphoma
Test: Lymphoma incidence in mice (National Institute of Health experiment)
Assay type: in vivo
Settings: reduced from 10-20%
Experimental: In another experiment at the National Institute of Health, in other mice after radiation exposure which caused 90% of them to develop lymphoma, there was a reduction of the lymphoma incidence to 40% and the spontaneous frequency was reduced from 10-20% down to 0%. […] This was observed after treating mice right after birth, if humans are treated later in life it is possible that only 10 or 5 years are added and probably more for DNA repair deficient diseases like ataxia telangiectasia (ATM) which is still very substantial, especially, since it treats and reduces the likelihood of many diseases.

With `COc1ccc2cc(-c3nc4ccc(C)cn4c3NCc3ccco3)c(=O)[nH]c2c1` [YEL002] the spontaneous lymphoma frequency was 0%.
